Data taken from ChEMBL document CHEMBL1134726, “SAR studies of novel 5-substituted 2-arylindoles as nonpeptidyl GnRH receptor antagonists” (Bioorg Med Chem Lett, 2001).

Molecular target: T1, Gonadotropin-releasing hormone receptor (Rattus norvegicus, UniProt P30969)
T1 sequence (P30969 whole entry): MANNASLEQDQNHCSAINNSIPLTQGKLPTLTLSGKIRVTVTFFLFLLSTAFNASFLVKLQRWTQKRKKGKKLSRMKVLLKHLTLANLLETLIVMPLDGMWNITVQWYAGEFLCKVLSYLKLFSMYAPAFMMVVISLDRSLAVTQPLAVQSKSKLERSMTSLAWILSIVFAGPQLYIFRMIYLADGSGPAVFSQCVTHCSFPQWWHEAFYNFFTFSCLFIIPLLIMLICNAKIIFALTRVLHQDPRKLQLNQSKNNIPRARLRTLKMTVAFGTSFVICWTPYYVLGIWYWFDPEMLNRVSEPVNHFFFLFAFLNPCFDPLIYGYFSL
Assay: Binding affinity to rat Gonadotropin-releasing hormone receptor.

Compound	IC50 [µM]
Cc1cc(C)cc(-c2[nH]c3ccc(OC(=O)N4CCN(C)CC4)cc3c2CCNCCCCc2ccc(O)cc2)c1	0.025
Cc1cc(C)cc(-c2[nH]c3ccc(OC(=O)N4CCN(S(C)(=O)=O)CC4)cc3c2CCNCCCCc2ccc(O)cc2)c1	0.006
CCCC(=O)N1CCN(C(=O)Oc2ccc3[nH]c(-c4cc(C)cc(C)c4)c(CCNCCCCc4ccc(O)cc4)c3c2)CC1	0.03
CCOC(=O)N1CCN(C(=O)Oc2ccc3[nH]c(-c4cc(C)cc(C)c4)c(CCNCCCCc4ccc(O)cc4)c3c2)CC1	0.032
CC(=O)N1CCN(C(=O)Oc2ccc3[nH]c(-c4cc(C)cc(C)c4)c(CCNCCCCc4ccc(O)cc4)c3c2)CC1	0.03
Cc1cc(C)cc(-c2[nH]c3ccc(OCc4ccccc4)cc3c2CCNCCCCc2ccc(O)cc2)c1	0.1
Cc1cc(C)cc(-c2[nH]c3ccc(OC(=O)N4CCN(S(=O)(=O)C(C)C)CC4)cc3c2CCNCCCCc2ccc(O)cc2)c1	0.007
Cc1cc(C)cc(-c2[nH]c3ccc(OC(=O)N4CCCCC4)cc3c2CCNCCCCc2ccc(O)cc2)c1	0.032
CNC(=O)Oc1ccc2[nH]c(-c3cc(C)cc(C)c3)c(CCNCCCCc3ccc(O)cc3)c2c1	0.03
CCS(=O)(=O)N1CCN(C(=O)Oc2ccc3[nH]c(-c4cc(C)cc(C)c4)c(CCNCCCCc4ccc(O)cc4)c3c2)CC1	0.004
CCCS(=O)(=O)N1CCN(C(=O)Oc2ccc3[nH]c(-c4cc(C)cc(C)c4)c(CCNCCCCc4ccc(O)cc4)c3c2)CC1	0.012
Cc1cc(C)cc(-c2[nH]c3ccc(OC(=O)N4CCOCC4)cc3c2CCNCCCCc2ccc(O)cc2)c1	0.02
COc1ccc2[nH]c(-c3cc(C)cc(C)c3)c(CCNCCCCc3ccc(O)cc3)c2c1	0.04
Cc1cc(C)cc(-c2[nH]c3ccc(OC(=O)N4CCN(CC(N)=O)CC4)cc3c2CCNCCCCc2ccc(O)cc2)c1	0.027
CCNC(=O)Oc1ccc2[nH]c(-c3cc(C)cc(C)c3)c(CCNCCCCc3ccc(O)cc3)c2c1	0.016
Cc1cc(C)cc(-c2[nH]c3ccc(OC(=O)N4CCNCC4)cc3c2CCNCCCCc2ccc(O)cc2)c1	0.1
Cc1cc(C)cc(-c2[nH]c3ccc(OC(=O)N(C)C)cc3c2CCNCCCCc2ccc(O)cc2)c1	0.03
CCCNC(=O)Oc1ccc2[nH]c(-c3cc(C)cc(C)c3)c(CCNCCCCc3ccc(O)cc3)c2c1	0.03
CCC(=O)N1CCN(C(=O)Oc2ccc3[nH]c(-c4cc(C)cc(C)c4)c(CCNCCCCc4ccc(O)cc4)c3c2)CC1	0.015
